Experiment [1] deals with T1, PregOBP56a (Phormia regina odorant-binding protein 56a) (Phormia regina, UniProt L8B8J6).
T1 construct: recombinant mature PregOBP56a (117 amino acid residues)
T1 sequence (L8B8J6 19-135): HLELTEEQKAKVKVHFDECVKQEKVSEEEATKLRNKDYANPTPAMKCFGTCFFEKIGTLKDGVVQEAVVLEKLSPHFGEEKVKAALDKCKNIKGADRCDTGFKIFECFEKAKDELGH
Description: direct fluorescence titration of the reporter probe, pH […].

The target in experiment [2] is T1, PregOBP56a (Phormia regina odorant-binding protein 56a). Description: fluorescence competitive binding assay (1-NPN displacement), pH […].

A word on the Kd: it is the concentration at which binding is half-saturated. `c1ccc(Nc2cccc3ccccc23)cc1` [1-NPN, N-phenyl-1-naphthylamine] had a Kd in experiment [1] of 11400 nM. In experiment [2], `CCCCC/C=C\C/C=C\CCCCCCCC(=O)O` [linoleic acid] had a Kd of 510 nM. `CCCCCCCC/C=C\CCCCCCCC(=O)O` [oleic acid] had an equilibrium dissociation constant (Kd) in experiment [2] of 710 nM. For the molecule `CCCCCCCCCCCCCCCC(=O)O` [palmitic acid], the Kd in experiment [2] was 280 nM. In turn, `CCCCCCCCCCCCCCCCCC(=O)O` [stearic acid] displayed a Kd in experiment [2] of 350 nM.
